Key:
CFTR ΔF508 mutant = target: T1, CFTR ΔF508 mutant (Homo sapiens, UniProt P13569, DEL508-508); assay: YFP-halide influx assay for the CFTR-ΔF508 mutation (384 well, FDSS/μCell); assay type: cell-based; settings: CFBE41o- cells, CFTR-ΔF508, 1×D-PBS, fluorescence after 36 seconds
T1 construct: expressed in transfected cells; host or cells: CFBE41o- (adenoviral transduction)
From the text: The YFP halide influx assay measures the functionality of the cystic fibrosis Transmembrane Conductance regulator (CFTR) channels in the cystic fibrosis bronchial epithelium cell line CFBE41o-. The assay is used to evaluate the capacity of compounds to increase the open probability of existing CFTR channels in the membrane. It makes use of the observation that the yellow fluorescent protein (YFP) variant YFP H148Q, I152L has its fluorescence substantially quenched by halide ions like Cl— and I—. (Galietta, Haggie, & Verkman, 2001) (Nagai, et al., 2002)
For this purpose, CFBE41o-cells are seeded in 384 well plates (3000 CFBE cells/well). One day after seeding, the CFBE cells are transduced with adenoviral vectors that direct the expression of the CFTR ΔF508 mutant and of the YFP reporter. Cells are incubated at 27° C., 5% CO2 for 24 hours so as to allow for the proper folding and migration to the membrane of the CFTR channel or treated with a CFTR modulator during 24 h at 37° C.
(§1) The I— induced quenching of fluorescence is recorded on an immediately after injection of I— for 2 min on an FDSS/μCell (Hamamatsu). The capacity of a compound to increase the channel opening is directly correlated with the decrease in fluorescence, and is expressed as (1-(fluorescence after 36 seconds (F)/fluorescence before injection (F0))) and an EC50 can be derived from a (1-F/F0) vs compound concentration plot.

CFTR G551D mutant = target: T2, CFTR G551D mutant (Homo sapiens, UniProt P13569, G551D); assay: YFP-halide influx assay for the CFTR-G551D mutation; assay type: cell-based; settings: HEK293 cells, forskolin 10.67 μM
T2 construct: expressed in transfected cells; host or cells: HEK293 (reverse transfection with plasmid)
From the text: The YFP halide influx assay measures the functionality of the cystic fibrosis Transmembrane Conductance regulator (CFTR) channels. The assay is used to evaluate the capacity of compounds to increase the channel opening of existing mutant CFTR channels in the membrane. It makes use of the observation that the yellow fluorescent protein (YFP) variant YFP H148Q, I152L, […] has its fluorescence substantially quenched by halide ions like Cl^− and I^−. (Galietta, Haggie, & Verkman, 2001)
For this purpose, HEK293-cells are seeded in 96 well plates. During seeding, the cells are reverse-transfected with plasmid vectors that direct the expression of the CFTR G551D mutant and of the YFP reporter. Cells are incubated at 37° C., 5% CO2 for 24 hours so as to allow for sufficient expression of the CFTR protein.
as §1, with “I^−-induced” for “I— induced”, “recorded” for “recorded on an”, “I^−” for “I—”, “7 seconds.” for “2 min on an FDSS/μCell (Hamamatsu).”, “7” for “36”

T2 sequence (P13569 whole entry G551D): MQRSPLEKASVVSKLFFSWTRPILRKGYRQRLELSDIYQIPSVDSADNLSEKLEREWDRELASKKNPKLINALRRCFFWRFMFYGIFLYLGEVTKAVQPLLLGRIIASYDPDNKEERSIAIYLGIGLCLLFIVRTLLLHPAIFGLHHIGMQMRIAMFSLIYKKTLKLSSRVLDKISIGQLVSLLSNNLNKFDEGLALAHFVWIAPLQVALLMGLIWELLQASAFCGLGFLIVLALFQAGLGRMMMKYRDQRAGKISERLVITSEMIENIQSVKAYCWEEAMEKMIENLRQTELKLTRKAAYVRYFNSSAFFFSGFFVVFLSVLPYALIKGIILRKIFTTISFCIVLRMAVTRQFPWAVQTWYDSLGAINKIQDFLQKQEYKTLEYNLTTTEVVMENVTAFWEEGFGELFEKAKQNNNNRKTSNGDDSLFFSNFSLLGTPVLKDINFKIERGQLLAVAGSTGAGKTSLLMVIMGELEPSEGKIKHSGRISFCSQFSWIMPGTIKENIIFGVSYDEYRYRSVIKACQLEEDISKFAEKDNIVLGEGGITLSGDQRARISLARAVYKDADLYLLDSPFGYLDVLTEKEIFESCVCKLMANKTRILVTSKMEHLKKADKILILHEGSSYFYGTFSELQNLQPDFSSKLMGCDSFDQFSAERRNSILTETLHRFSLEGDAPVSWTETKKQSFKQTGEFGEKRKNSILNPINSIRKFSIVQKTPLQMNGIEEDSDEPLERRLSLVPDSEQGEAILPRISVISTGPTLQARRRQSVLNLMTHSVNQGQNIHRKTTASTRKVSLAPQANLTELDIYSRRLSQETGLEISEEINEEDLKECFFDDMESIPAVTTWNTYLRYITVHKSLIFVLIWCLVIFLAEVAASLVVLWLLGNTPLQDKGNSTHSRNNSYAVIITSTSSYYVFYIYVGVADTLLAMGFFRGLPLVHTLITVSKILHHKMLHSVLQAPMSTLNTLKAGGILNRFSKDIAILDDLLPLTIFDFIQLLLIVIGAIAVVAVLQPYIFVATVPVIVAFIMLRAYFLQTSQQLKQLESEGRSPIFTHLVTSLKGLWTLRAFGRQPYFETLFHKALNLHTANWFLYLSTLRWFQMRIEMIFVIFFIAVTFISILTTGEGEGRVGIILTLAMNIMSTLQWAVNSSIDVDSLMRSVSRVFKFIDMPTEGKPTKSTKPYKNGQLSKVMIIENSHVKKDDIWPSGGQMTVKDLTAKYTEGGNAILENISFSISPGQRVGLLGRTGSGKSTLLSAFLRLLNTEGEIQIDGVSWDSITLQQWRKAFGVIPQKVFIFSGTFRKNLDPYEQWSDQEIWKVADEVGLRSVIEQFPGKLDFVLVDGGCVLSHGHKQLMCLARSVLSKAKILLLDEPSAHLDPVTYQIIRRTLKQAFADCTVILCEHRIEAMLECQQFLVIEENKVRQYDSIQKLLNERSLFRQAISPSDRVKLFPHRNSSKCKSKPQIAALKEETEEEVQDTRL
T1 sequence (P13569 with tags, fused parts or gaps DEL508-508): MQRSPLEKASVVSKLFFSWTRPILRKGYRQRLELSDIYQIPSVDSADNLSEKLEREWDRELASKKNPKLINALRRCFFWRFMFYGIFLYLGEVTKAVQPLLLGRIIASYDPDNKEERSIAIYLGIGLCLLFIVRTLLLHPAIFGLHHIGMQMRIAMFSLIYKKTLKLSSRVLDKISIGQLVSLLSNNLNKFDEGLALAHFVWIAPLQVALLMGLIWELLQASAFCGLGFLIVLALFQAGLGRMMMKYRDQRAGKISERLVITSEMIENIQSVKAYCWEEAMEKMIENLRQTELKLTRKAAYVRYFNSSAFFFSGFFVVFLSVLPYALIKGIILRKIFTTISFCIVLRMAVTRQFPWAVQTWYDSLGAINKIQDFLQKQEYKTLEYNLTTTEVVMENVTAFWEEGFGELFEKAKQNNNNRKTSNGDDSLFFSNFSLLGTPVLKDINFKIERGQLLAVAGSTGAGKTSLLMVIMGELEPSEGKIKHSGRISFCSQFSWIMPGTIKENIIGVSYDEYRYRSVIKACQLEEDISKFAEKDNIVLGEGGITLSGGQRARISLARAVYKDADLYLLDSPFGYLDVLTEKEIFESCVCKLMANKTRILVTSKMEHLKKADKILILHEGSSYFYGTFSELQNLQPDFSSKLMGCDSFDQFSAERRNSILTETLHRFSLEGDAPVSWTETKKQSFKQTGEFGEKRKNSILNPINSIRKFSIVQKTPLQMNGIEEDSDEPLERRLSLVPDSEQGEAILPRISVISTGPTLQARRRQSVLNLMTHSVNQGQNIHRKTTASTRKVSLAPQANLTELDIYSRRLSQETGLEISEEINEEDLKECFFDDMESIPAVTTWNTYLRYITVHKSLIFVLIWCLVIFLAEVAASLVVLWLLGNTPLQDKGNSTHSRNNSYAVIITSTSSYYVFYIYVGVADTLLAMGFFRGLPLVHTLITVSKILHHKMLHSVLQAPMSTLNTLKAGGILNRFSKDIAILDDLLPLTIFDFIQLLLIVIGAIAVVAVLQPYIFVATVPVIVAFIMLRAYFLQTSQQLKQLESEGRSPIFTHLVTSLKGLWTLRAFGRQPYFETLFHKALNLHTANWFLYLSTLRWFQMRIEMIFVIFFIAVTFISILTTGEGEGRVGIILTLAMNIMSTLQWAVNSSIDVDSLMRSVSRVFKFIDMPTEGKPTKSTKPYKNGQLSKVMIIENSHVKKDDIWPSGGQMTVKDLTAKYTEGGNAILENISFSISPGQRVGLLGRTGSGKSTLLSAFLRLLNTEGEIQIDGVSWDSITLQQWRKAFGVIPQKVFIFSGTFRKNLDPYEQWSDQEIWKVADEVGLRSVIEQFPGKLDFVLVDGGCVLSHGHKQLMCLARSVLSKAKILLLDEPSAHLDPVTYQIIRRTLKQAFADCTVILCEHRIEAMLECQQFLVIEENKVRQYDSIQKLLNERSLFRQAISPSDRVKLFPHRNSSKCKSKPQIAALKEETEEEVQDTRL

Row | SMILES | EC50 (CFTR ΔF508 mutant) [nM] | EC50 (CFTR G551D mutant) [nM]
1 | CC(CO)C(=O)Nc1sc(S(=O)(=O)c2ccc(OC(F)(F)F)cc2)cc1C(N)=O (stereo not shown) [Compound 350, 2-[(3-hydroxy-2-methyl-propanoyl)amino]-5-[4-(trifluoromethoxy)phenyl] sulfonyl-thiophene-3-carboxamide] | 39 | 668
2 | NC(=O)c1cc(S(=O)(=O)c2ccc(OC(F)(F)F)cc2)sc1NC(=O)C1(CO)CC1 [Compound 357, 2-[[1-(hydroxymethyl)cyclopropanecarbonyl]amino]-5-[4-(trifluoromethoxy)phenyl] sulfonyl-thiophene-3-carboxamide] | 29.7 | 301
3 | CC(C)(O)C(=O)Nc1sc(S(=O)(=O)c2ccc(Cl)cc2)cc1C(N)=O [Compound 358, 5-(4-chlorophenyl)sulfonyl-2-[(2-hydroxy-2-methyl-propanoyl)amino] thiophene-3-carboxamide] | 110 | 2680
4 | NC(=O)c1cc(S(=O)(=O)c2ccc(OC(F)(F)F)cc2)sc1NC(=O)C1(CO)CCC1 [Compound 364, 2-[[1-(hydroxymethyl)cyclobutanecarbonyl]amino]-5-[4-(trifluoromethoxy)phenyl] sulfonyl-thiophene-3-carboxamide] | 30.4 | 366
5 | CC(C)(C)[C@H](O)C(=O)Nc1sc(S(=O)(=O)c2ccc(C(F)(F)F)cc2)cc1C(N)=O [Compound 365, 2-[[(2S)-2-hydroxy-3,3-dimethyl-butanoyl]amino]-5-[4-(trifluoromethyl)phenyl] sulfonyl-thiophene-3-carboxamide] | 29.9 | 306
6 | COCCOc1ccc(S(=O)(=O)c2cc(C(N)=O)c(NC(=O)C(C)(C)O)s2)cc1 [Compound 371, 2-[(2-hydroxy-2-methyl-propanoyl)amino]-5-[4-(2-methoxyethoxy)phenyl] sulfonyl-1-thiophene-3-carboxamide] | 107 | 3330
7 | CC(C)(O)C(=O)Nc1sc(S(=O)(=O)c2ccc(OC(F)(F)F)c(F)c2F)cc1C(N)=O [Compound 378, 5-[2,3-difluoro-4-(trifluoromethoxy)phenyl] sulfonyl-2-[(2-hydroxy-2-methyl-propanoyl)amino] thiophene-3-carboxamide] | 26.1 | 1850
8 | CC(C)(O)C(=O)Nc1sc(S(=O)(=O)c2ccc(C#N)cc2)cc1C(N)=O [Compound 381, 5-(4-cyanophenyl)sulfonyl-2-[(2-hydroxy-2-methyl-propanoyl)amino] thiophene-3-carboxamide] | 55.9 | 1310
9 | C[C@H](CO)C(=O)Nc1sc(S(=O)(=O)c2ccc(OC(F)(F)F)cc2)cc1C(N)=O [Compound 382, 2-[[(2R)-3-hydroxy-2-methyl-propanoyl]amino]-5-[4-(trifluoromethoxy)phenyl] sulfonyl-thiophene-3-carboxamide] | 66.1 | 873
10 | Cc1cc(S(=O)(=O)c2cc(C(N)=O)c(NC(=O)C(C)(C)O)s2)ncc1F [Compound 383, 5-[(5-fluoro-4-methyl-2-pyridyl)sulfonyl]-2-[(2-hydroxy-2-methyl-propanoyl)amino] thiophene-3-carboxamide] | 135 | 2610
11 | Cc1ccc(S(=O)(=O)c2cc(C(N)=O)c(NC(=O)C(C)(C)O)s2)nc1 [Compound 384, 2-[(2-hydroxy-2-methyl-propanoyl)amino]-5-[(5-methyl-2-pyridyl)sulfonyl] thiophene-3-carboxamide] | 159 | 2740
12 | CC(C)(O)C(=O)Nc1sc(S(=O)(=O)c2ccc(Cl)nc2)cc1C(N)=O [Compound 385, 5-[(6-chloro-3-pyridyl)sulfonyl]-2-[(2-hydroxy-2-methyl-propanoyl)amino] thiophene-3-carboxamide] | 62.6 | 1180
13 | CC(C)(O)C(=O)Nc1sc(S(=O)(=O)c2ccc(Cl)cc2OC(F)(F)F)cc1C(N)=O [Compound 388, 5-[4-chloro-2-(trifluoromethoxy)phenyl] sulfonyl-2-[(2-hyroxy-2-methyl-propanoyl)amino] thiophene-3-carboxamide] | 43.3 | 695
14 | CC(CO)C(=O)Nc1sc(S(=O)(=O)c2ccc(OC(F)(F)F)cn2)cc1C(N)=O (stereo not shown) [Compound 392, 2-[(3-hydroxy-2-methyl-propanoyl)amino]-5-[[5-(trifluoromethoxy)-2-pyridyl]sulfonyl] thiophene-3-carboxamide] | 84.6 | 1600
15 | CC(C)(O)C(=O)Nc1sc(S(=O)(=O)c2ccc(C(F)F)cn2)cc1C(N)=O [Compound 395, 5-[[5-(difluoromethyl)-2-pyridyl]sulfonyl]-2-[(2-hydroxy-2-methyl-propanoyl)amino] thiophene-3-carboxamide] | 294 | 1860
16 | CC(O)C(=O)Nc1sc(S(=O)(=O)c2ccc(C(F)(F)F)cn2)cc1C(N)=O (stereo not shown) [Compound 396, 2-(2-hydroxypropanoylamino)-5-[[5-(trifluoromethyl)-2-pyridyl]sulfonyl] thiophene-3-carboxamide] | 110 | 1350

These reach a lower EC50 (CFTR ΔF508 mutant). Values come first.

Row | EC50 (CFTR ΔF508 mutant) [nM] | EC50 (CFTR G551D mutant) [nM] | SMILES
17 | 22.8 | 515 | CC(O)C(=O)Nc1sc(S(=O)(=O)c2ccc(C(F)(F)F)cc2)cc1C(N)=O (stereo not shown) [Compound 398, 2-(2-hydroxypropanoylamino)-5-[4-(trifluoromethyl)phenyl]sulfonyl-thiophene-3-carboxamide]
18 | 22.3 | 1230 | CC(CO)C(=O)Nc1sc(S(=O)(=O)c2ccc(Cl)cc2)cc1C(N)=O (stereo not shown) [Compound 362, 5-(4-chlorophenyl)sulfonyl-2-[(3-hydroxy-2-methyl-propanoyl)amino] thiophene-3-carboxamide]
19 | 17.2 | 502 | CC(C)[C@H](O)C(=O)Nc1sc(S(=O)(=O)c2ccc(F)cc2C(F)(F)F)cc1C(N)=O [Compound 356, 5-[4-fluoro-2-(trifluoromethyl)phenyl] sulfonyl-2-[[(2S)-2-hydroxy-3-methyl-butanoyl]amino] thiophene-3-carboxamide]
20 | 9.63 | 2060 | CC(CO)C(=O)Nc1sc(S(=O)(=O)c2ccc(F)cc2C(F)(F)F)cc1C(N)=O (stereo not shown) [Compound 359, 5-[4-fluoro-2-(trifluoromethyl)phenyl] sulfonyl-2-[(3-hydroxy-2-methyl-propanoyl)amino] thiophene-3-carboxamide]
21 | 7.01 | 280 | CC(C)[C@H](O)C(=O)Nc1sc(S(=O)(=O)c2ccc(F)cc2Cl)cc1C(N)=O [Compound 361, 5-(2-chloro-4-fluoro-phenyl)sulfonyl-2-[[(2S)-2-hydroxy-3-methyl-butanoyl]amino] thiophene-3-carboxamide]
22 | 5.4 | 942 | C[C@H](O)C(=O)Nc1sc(S(=O)(=O)c2c(Cl)cc(F)cc2Cl)cc1C(N)=O [Compound 355, 5-(2,6-dichloro-4-fluoro-phenyl)sulfonyl-2-[[(2S)-2-hydroxypropanoyl]amino] thiophene-3-carboxamide]
23 | 4.8 | 72.6 | CC(C)(O)C(=O)Nc1sc(S(=O)(=O)c2cc(C#N)ccc2OC(F)(F)F)cc1C(N)=O [Compound 372, 5-[5-cyano-2-(trifluoromethoxy)phenyl] sulfonyl-2-[(2-hydroxy-2-methyl-propanoyl)amino] thiophene-3-carboxamide]
24 | 3 | 37.3 | CC(CO)C(=O)Nc1sc(S(=O)(=O)c2cc(F)ccc2OC(F)(F)F)cc1C(N)=O (stereo not shown) [Compound 351, 5-[5-fluoro-2-(trifluoromethoxy)phenyl] sulfonyl-2-[(3-hydroxy-2-methyl-propanoyl)amino] thiophene-3-carboxamide]
25 | 2.5 | 57.4 | COc1ccc(OC(F)(F)F)c(S(=O)(=O)c2cc(C(N)=O)c(NC(=O)C(C)CO)s2)c1 (stereo not shown) [Compound 370, 2-[(3-hydroxy-2-methyl-propanoyl)amino]-5-[5-methoxy-2-(trifluoromethoxy)phenyl]sulfonyl-thiophene-3-carboxamide]
26 | 2 | 25.9 | CC(CO)C(=O)Nc1sc(S(=O)(=O)c2cc(Cl)ccc2OC(F)(F)F)cc1C(N)=O (stereo not shown) [Compound 386, 5-[5-chloro-2-(trifluoromethoxy)phenyl] sulfonyl-2-[(3-hydroxy-2-methyl-propanoyl)amino] thiophene-3-carboxamide]

Reference: patent US9382254B2, “Compounds and pharmaceutical compositions thereof for the treatment of cystic fibrosis” (Galapagos NV, priority 2013, dated 2016)
